Where two headings read alike, the source gives them in different places.
Biological target: human wildtype CFTR (Homo sapiens, UniProt P13569)
Experiment: Fluorescence cell-based assay of CFTR inhibition (YFP iodide influx, FRT cells)
Set-up: expressed in transfected cells; host or cells: Fisher rat thyroid (FRT) cells
Conditions: for CFTR inhibitory activity (in words): structure-activity discussion
[1] = Table 1, lower parts, given as ranges, read-out: IC50
[2] = Table 2 summary table, given as ranges, read-out: IC50
[3] = Table 1, upper part, CFTR inhibitory activity, given as ranges, read-out: IC50
[4] = Tables 1 and 2, read-out: IC50 (CFTR inhibition)

Sequence of human wildtype CFTR (P13569 whole entry): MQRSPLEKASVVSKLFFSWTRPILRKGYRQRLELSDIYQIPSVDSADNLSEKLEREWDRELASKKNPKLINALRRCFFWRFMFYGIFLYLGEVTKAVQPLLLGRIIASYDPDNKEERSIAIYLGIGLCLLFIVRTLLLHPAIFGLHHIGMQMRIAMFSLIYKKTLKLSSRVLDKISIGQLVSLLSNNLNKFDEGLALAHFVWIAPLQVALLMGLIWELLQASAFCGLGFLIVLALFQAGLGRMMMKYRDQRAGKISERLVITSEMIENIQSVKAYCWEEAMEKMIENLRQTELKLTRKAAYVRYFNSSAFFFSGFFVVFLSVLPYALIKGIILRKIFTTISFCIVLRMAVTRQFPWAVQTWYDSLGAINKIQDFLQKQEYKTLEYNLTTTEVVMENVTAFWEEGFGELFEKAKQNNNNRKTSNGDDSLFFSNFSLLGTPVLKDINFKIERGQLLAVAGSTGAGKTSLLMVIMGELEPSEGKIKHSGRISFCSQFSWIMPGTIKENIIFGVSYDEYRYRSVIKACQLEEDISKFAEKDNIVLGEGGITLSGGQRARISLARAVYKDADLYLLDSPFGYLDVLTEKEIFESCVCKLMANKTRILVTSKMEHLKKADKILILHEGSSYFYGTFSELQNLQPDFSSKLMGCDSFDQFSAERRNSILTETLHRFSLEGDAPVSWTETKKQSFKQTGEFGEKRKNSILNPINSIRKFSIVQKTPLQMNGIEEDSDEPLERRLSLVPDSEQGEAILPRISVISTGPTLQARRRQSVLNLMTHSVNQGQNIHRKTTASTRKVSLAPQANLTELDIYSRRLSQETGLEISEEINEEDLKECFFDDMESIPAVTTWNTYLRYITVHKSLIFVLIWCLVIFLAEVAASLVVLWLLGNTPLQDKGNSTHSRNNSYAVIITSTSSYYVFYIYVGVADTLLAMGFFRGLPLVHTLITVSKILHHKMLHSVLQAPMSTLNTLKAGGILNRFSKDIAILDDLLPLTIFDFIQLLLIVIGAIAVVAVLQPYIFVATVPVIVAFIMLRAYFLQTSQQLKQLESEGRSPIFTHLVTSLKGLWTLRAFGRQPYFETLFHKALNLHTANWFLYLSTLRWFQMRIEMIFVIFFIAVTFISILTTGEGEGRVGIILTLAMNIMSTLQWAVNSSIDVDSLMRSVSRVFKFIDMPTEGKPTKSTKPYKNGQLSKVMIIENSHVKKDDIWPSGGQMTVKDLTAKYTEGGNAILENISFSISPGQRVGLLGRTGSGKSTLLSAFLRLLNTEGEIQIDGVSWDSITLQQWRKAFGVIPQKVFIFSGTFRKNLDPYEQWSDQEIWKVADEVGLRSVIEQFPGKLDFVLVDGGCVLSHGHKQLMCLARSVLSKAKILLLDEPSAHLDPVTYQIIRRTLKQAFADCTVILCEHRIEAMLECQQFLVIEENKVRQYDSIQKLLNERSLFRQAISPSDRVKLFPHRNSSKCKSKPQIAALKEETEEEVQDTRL
Experimental: CFTR inhibition by thiazolidinone derivative compounds was determined by a fluorescence cell-based assay utilizing doubly transfected cells expressing human wild-type CFTR and a yellow fluorescent protein (YFP) iodide sensor, as described (see, e.g., Galietta, et al., J. Physiol. 281:C1734-C1742 (2001)). Fisher rat thyroid (FRT) cells stably expressing wild-type human CFTR and YFP-H148Q were cultured on 96-well black-wall plates as described (see, e.g., Ma, et al., J. Clin. Invest. 110:1651-1658 (2002)). Cells in 96-well plates were washed three times, and then CFTR was activated by incubation for 15 minutes with an activating cocktail containing 10 μM forskolin, 20 μM apigenin, and 100 μM IBMX. Test compounds were added 5 minutes before assay of iodide influx in which cells were exposed to a 100 mM inwardly directed iodide gradient. YFP fluorescence was recorded for 2 seconds before and 12 seconds after creation of the iodide gradient. Initial rates of iodide influx were computed from the time course of decreasing fluorescence after the iodide gradient.
CFTR-facilitated iodide influx following extracellular iodide addition results in quenching of cytoplasmic YFP fluorescence.

Structure (SMILES)	IC50 [1] [µM]	IC50 [2] [µM]	IC50 [3] [µM]	IC50 [4] [µM]	CFTR inhibitory activity (in words)
O=C(O)c1ccc(NC(=S)C2SC(=S)N(c3cccc(C(F)(F)F)c3)C2=O)cc1 (stereo not shown) [Compound 51, 4-(4-oxo-2-thioxo-3-(3-(trifluoromethyl)phenyl)thiazolidine-5-carbothioamido)benzoic acid]	5 to 10	5 to 10	–	–	–
O=C(O)c1cc(/C=C2\SC(=S)N(c3ccc(C(F)(F)F)cc3)C2=O)ccc1O [Compound 32, (Z)-2-hydroxy-5-((4-oxo-2-thioxo-3-(4-(trifluoromethyl)phenyl)thiazolidin-5-ylidene)methyl)benzoic acid]	–	20 to 30	20 to 30	–	–
O=C(O)c1cc(/C=C2\SC(=S)N(c3ccccc3C(F)(F)F)C2=O)ccc1O [Compound 22, (Z)-2-hydroxy-5-((4-oxo-2-thioxo-3-(2-(trifluoromethyl)phenyl)thiazolidin-5-ylidene)methyl)benzoic acid]	–	10 to 20	10 to 20	–	–
O=C(O)c1cccc(/C=C2\SC(=S)N(c3ccc(C(F)(F)F)cc3)C2=O)c1 [Compound 21, (Z)-3-((4-oxo-2-thioxo-3-(4-(trifluoromethyl)phenyl)thiazolidin-5-ylidene)methyl)benzoic acid]	–	10 to 20	10 to 20	–	–
O=C(O)COc1cccc(/C=C2\SC(=S)N(c3cccc(C(F)(F)F)c3)C2=O)c1 [Compound 36, (Z)-2-(3-((4-oxo-2-thioxo-3-(3-(trifluoromethyl)phenyl)thiazolidin-5-ylidene)methyl)phenoxy) acetic acid]	–	20 to 30	20 to 30	–	–
O=C(O)c1ccc(/C=C2\SC(=S)N(c3ccccc3C(F)(F)F)C2=O)cc1 [Compound 20, (Z)-4-((4-oxo-2-thioxo-3-(2-(trifluoromethyl)phenyl)thiazolidin-5-ylidene)methyl)benzoic acid]	–	10 to 20	10 to 20	–	–
O=C(O)c1ccc(SC2CC(=O)N(c3cccc(C(F)(F)F)c3)C2=O)cc1 (stereo not shown) [Compound 50, 4-(2,5-dioxo-1-(3-(trifluoromethyl)phenyl)pyrrolidin-3-ylthio)benzoic acid]	5 to 10	5 to 10	–	~7	–
O=C1/C(=C/c2ccc(O)cc2)SC(=S)N1c1cccc(C(F)(F)F)c1 [Compound 31, (Z)-5-(4-hydroxybenzylidene)-2-thioxo-3-(3-(trifluoromethyl)phenyl) thiazolidin-4-one]	–	20 to 30	20 to 30	–	low activity
O=C(O)c1ccc(CC2SC(=S)N(c3cccc(C(F)(F)F)c3)C2=O)cc1 (stereo not shown) [Compound 56]	–	–	–	–	inactive
O=C1/C(=C/c2cc(O)c(O)c(O)c2)SC(=S)N1c1cccc(C(F)(F)F)c1 [Compound 19, (Z)-2-thioxo-3-(3-(trifluoromethyl)phenyl)-5-(3,4,5-trihydroxybenzylidene) thiazolidin-4-one]	–	10 to 20	10 to 20	–	low activity
O=C(O)c1ccc(/C=C2\SC(=S)N(c3ccc(F)c(C(F)(F)F)c3)C2=O)cc1 [Compound 8, (Z)-4-((3-(4-fluoro-3-(trifluoromethyl)phenyl)-4-oxo-2-thioxothiazolidin-5 ylidene)methyl)benzoic acid]	–	1 to 2	1 to 2	–	–
O=C(O)c1ccc(/C=C2\SC(=S)N(c3cc(C(F)(F)F)cc(C(F)(F)F)c3)C2=O)cc1 [Compound 23, (Z)-4-((3-(3,5-bis(trifluoromethyl)phenyl)-4-oxo-2-thioxothiazolidin-5-ylidene)methyl)benzoic acid]	–	10 to 20	10 to 20	–	–
O=C1S/C(=C\c2ccc(-c3nn[nH]n3)cc2)C(=O)N1c1cccc(C(F)(F)F)c1 [Compound 48, (Z)-5-(4-(1H-tetrazol-5-yl)benzylidene)-3-(3-(trifluoromethyl)phenyl) thiazolidine-2,4-dione]	10 to 20	10 to 20	–	–	–
Cc1cccc(N2C(=O)/C(=C/c3ccc(C(=O)O)cc3)SC2=S)c1 [Compound 12, (Z)-4-((4-oxo-2-thioxo-3-m-tolylthiazolidin-5-ylidene)methyl)benzoic acid]	–	5 to 10	5 to 10	–	–
O=C(O)c1ccc(/C=C2\SC(=S)N(c3cccc(C(F)(F)F)c3)C2=O)c(O)c1 [Compound 16, (Z)-3-hydroxy-4-((4-oxo-2-thioxo-3-(3-(trifluoromethyl)phenyl)thiazolidin-5-ylidene)methyl)benzoic acid]	–	7 to 9	7 to 9	–	–
O=C(O)COc1ccc(/C=C2\SC(=S)N(c3cccc(C(F)(F)F)c3)C2=O)cc1 [Compound 10, (Z)-2-(4-((4-oxo-2-thioxo-3-(3-(trifluoromethyl)phenyl)thiazolidin-5-ylidene)methyl)phenoxy) acetic acid]	–	2 to 3	2 to 3	2.6	–
O=C(O)c1cccc(/C=C2\SC(=S)N(c3cccc(C(F)(F)F)c3)C2=O)c1 [Compound 9, (Z)-3-((4-oxo-2-thioxo-3-(3-(trifluoromethyl)phenyl)thiazolidin-5-ylidene)methyl)benzoic acid]	–	1 to 2	1 to 2	–	–
Cc1cccc(N2C(=O)/C(=C/c3ccc(C(=O)O)cc3)SC2=S)c1C [Compound 13, (Z)-4-((3-(2,3-dimethylphenyl)-4-oxo-2-thioxothiazolidin-5-ylidene)methyl)benzoic acid]	–	5 to 10	5 to 10	–	–
O=C(O)c1ccc(/C=C2\SC(=S)N(c3ccc(Cl)c(C(F)(F)F)c3)C2=O)cc1 [Compound 24, (Z)-4-((3-(4-chloro-3-(trifluoromethyl)phenyl)-4-oxo-2-thioxothiazolidin-5-ylidene)methyl)benzoic acid]	–	10 to 20	10 to 20	–	–
O=C(O)c1cccc(/C=C2\SC(=S)N(c3ccc(F)c(C(F)(F)F)c3)C2=O)c1 [Compound 11, (Z)-3-((3-(4-fluoro-3-(trifluoromethyl)phenyl)-4-oxo-2-thioxothiazolidin-5-ylidene)methyl)benzoic acid]	–	5 to 10	5 to 10	–	–
O=C(O)c1ccccc1/C=C1\SC(=S)N(c2ccc(C(F)(F)F)cc2)C1=O [Compound 29, (Z)-2-((4-oxo-2-thioxo-3-(4-(trifluoromethyl)phenyl)thiazolidin-5-ylidene)methyl)benzoic acid]	–	10 to 20	10 to 20	–	–
O=C1/C(=C/c2cc(Br)c(O)c(Br)c2)SC(=S)N1c1cccc(C(F)(F)F)c1 [Compound 14, (Z)-5-(3,5-dibromo-4-hydroxybenzylidene)-2-thioxo-3-(3-(trifluoromethyl)phenyl) thiazolidin-4-one]	–	5 to 10	5 to 10	–	modest inhibition activity
O=C(O)c1cccc(/C=C2\SC(=S)N(c3ccccc3C(F)(F)F)C2=O)c1 [Compound 28, (Z)-3-((4-oxo-2-thioxo-3-(2-(trifluoromethyl)phenyl)thiazolidin-5-ylidene)methyl)benzoic acid]	–	10 to 20	10 to 20	–	–
O=C(O)c1ccccc1/C=C1\SC(=S)N(c2cccc(C(F)(F)F)c2)C1=O [Compound 26, (Z)-2-((4-oxo-2-thioxo-3-(3-(trifluoromethyl)phenyl)thiazolidin-5-ylidene)methyl)benzoic acid]	–	10 to 20	10 to 20	–	–
O=C1/C(=C/c2ccncc2)SC(=S)N1c1cccc(C(F)(F)F)c1 [Compound 33, (Z)-5-(pyridin-4-ylmethylene)-2-thioxo-3-(3-(trifluoromethyl)phenyl) thiazolidin-4-one]	–	20 to 30	–	20 to 30	inactive
O=C1/C(=C/c2ccc(S(=O)(=O)[O-])cc2)SC(=S)N1c1cccc(C(F)(F)F)c1.[Na+] [Compound 35, sodium (Z)-4-((4-oxo-2-thioxo-3-(3-(trifluoromethyl)phenyl)thiazolidin-5-ylidene)methyl) benzenesulfonate]	–	20 to 30	20 to 30	–	inactive
O=C(O)c1cc(/C=C2\SC(=S)N(c3cccc(C(F)(F)F)c3)C2=O)ccc1O [Compound 7, (Z)-2-hydroxy-5-((4-oxo-2-thioxo-3-(3-(trifluoromethyl)phenyl)thiazolidin-5-ylidene)methyl)benzoic acid]	–	1 to 2	1 to 2	–	–
O=C1/C(=C/c2ccc(O)c(O)c2O)SC(=S)N1c1cccc(C(F)(F)F)c1 [Compound 34, (Z)-2-thioxo-3-(3-(trifluoromethyl)phenyl)-5-(2,3,4-trihydroxybenzylidene) thiazolidin-4-one]	–	20 to 30	20 to 30	–	low activity
O=C(O)c1ccc(/C=C2\SC(=S)N(c3ccc(C(F)(F)F)cc3)C2=O)cc1 [Compound 25, (Z)-4-((4-oxo-2-thioxo-3-(4-(trifluoromethyl)phenyl)thiazolidin-5-ylidene)methyl)benzoic acid]	–	10 to 20	10 to 20	–	–
O=C(O)c1ccccc1/C=C1\SC(=S)N(c2ccccc2C(F)(F)F)C1=O [Compound 27, (Z)-2-((4-oxo-2-thioxo-3-(2-(trifluoromethyl)phenyl)thiazolidin-5-ylidene)methyl)benzoic acid]	–	10 to 20	10 to 20	–	–

Source: US20110105565A1, “WATER SOLUBLE SMALL MOLECULE INHIBITORS OF THE CYSTIC FIBROSIS TRANSMEMBRANE CONDUCTANCE REGULATOR” (THE REGENTS OF THE UNIVERSITY OF CALIFORNIA, priority 2008, published 2011)
